How the values were obtained:
[1] = in vivo, po; for Cmax of free silybin / mean Cmax of total silybin (parent plus sulfate and glucuronide conjugates): rat
Experimental: The rats were randomly divided into three groups with six rats in each group. The oral administration dosages of silybin were 10 and 50 mg/10 ml/kg body weight without or with baicalein/tangeretin at the same dosage. Before experimentation, the animals were fasted for 24 hours with water ad libitum, and maintained at a temperature of 21° C. with 70% relative humidity and a 12 hour light/dark cycle. After oral administration, tail vein blood samples were collected (0.1 ml) into heparinized 0.65 ml micro-centrifuge tubes at the following time intervals: 0, 15, 30, 45, 60, 90, 120, 240, 360, 480, and 720 minutes. The blood samples then were immediately centrifuged at 4,000 rotations per minute (rpm) for 15 minutes at 4 degrees Celsius (° C.), and the resulting plasma was collected and stored at −80° C. until analysis.
To estimate the concentration of total glucuronide and sulfate conjugates of silybin in bio-samples including plasma, cell, and media, enzymatic hydrolysis with […] (8000 U/ml) and sulfatase (80 units per milliliter (U/ml)) was performed with 10 microliter (μl) aliquot of samples. The reactions were terminated by the addition of 40 μl of ice-cold acetonitrile containing 1% glacial acetic acid and internal standard NG (25 ng/ml). After centrifugation at 13,500 rotations per minute (rpm) for 15 minutes at 4° C., the supernatants were evaporated to dryness by nitrogen evaporator, and the residue was reconstituted with 60 μl of 30% methanol in water containing 1% ascorbic acid. An aliquot of 10 μl of the final solution was injected into LC-MS/MS for analysis. The completion of de-conjugation reaction was monitored by mass spectrometry. In parallel, 10 μl aliquots of samples without enzymes were treated with 40 μl of ice-cold acetonitrile containing 1% glacial acetic acid and naringenin (NG) (25 nanogram per milliliter (ng/ml)) to determine the concentration of free silybin. The total concentrations of glucuronides and sulfates in samples were estimated from the difference between the amount of silybin released by incubation with both glucuronidase and sulfatase and the amount of free silybin without enzymes incubation.
The analysis of silybin and total concentrations of glucuronides and sulfates was performed on an Agilent HP 1100 LC-MS system (Agilent, CA). A Waters ACQUITY UPLC® BEH C18 Column (1.7 μm, 2.1×50 mm, Waters Corp., Ireland) was used for detection with a C18 Security Guard cartridge (4×2.0 mm i.d., Phenomenex, Torrance, Calif.). Silybin A and silybin B were well separated using optimized gradient elution with methanol (mobile phase B) and 0.1% formic acid in water (mobile phase A) as mobile phase at a flow rate of 0.4 ml/min with a run time of 10 minutes. The gradient employed was as follows (time: mobile phase B percentage): 0 min: 25%, 6 minutes: 40%, 6.5 minutes: 25%.
Pharmacokinetic parameters including half-life (T1/2), volume of distribution (Vd), oral clearance (CL/F), and area under the concentration-time curve (AUC) were calculated using the software package PK Solutions 2.0.2 (SUMMIT Co., Ashland, Ohio, USA) with non-compartment analysis. One-way analysis of variance (ANOVA) was used when multiple groups were compared and the Bonferroni post hoc correction was used to accommodate multiple testing. The two-sided unpaired Student's t-test was used when treatments or differences between two groups were compared. […] During all statistical analyses, differences in group sizes were considered in the calculations. Differences were considered statistically significant when P<0.05. All data is presented as geometric mean±S.D.

[2] = system: CCl4-induced acute liver injury; test: CCl4-induced acute liver injury in rats; assay type: in vivo, rat
Experimental: Male SD rats were randomly divided into six groups: 1) Group I orally received blank vehicle for 7 days, and intraperitoneally (i.p.) injected with olive oil (2 ml/kg body weight) on day 7; 2) Group II orally received blank vehicle for 7 days, and injected with CCl4-olive oil mixture (40% CCl4, i.p., 2 ml/kg body weight) on day 7; 3) Group III was treated with silybin (100 mg/kg bodyweight, per os (p.o.) for 7 days, and injected with CCl4-olive oil mixture (40% CCl4, i.p., 2 ml/kg body weight) on day 7, 2 hour after administration of silybin; 4) Group IV was treated with silybin (100 mg/kg bodyweight, p.o.) and tangeretin (100 mg/kg bodyweight, p.o.) mixture for 7 days, and injected with CCl4-olive oil mixture (40% CCl4, i.p., 2 ml/kg body weight) on day 7, 2 hour after administration of the mixture; 5) Group V was treated with silybin (50 mg/kg bodyweight, p.o.) and tangeretin (50 mg/kg bodyweight, p.o.) mixture for 7 days, and injected with CCl4-olive oil mixture (40% CCl4, i.p., 2 ml/kg body weight) on day 7, 2 hour after administration of the mixture; 6) Group VI was treated with tangeretin (100 mg/kg bodyweight, p.o.) for 7 days, and injected with CCl4-olive oil mixture (40%, i.p., 2 ml/kg body weight) on day 7, 2 hour after administration of tangeretin. Model and control group were daily treated orally with blank solvent (35% PEG400: 15% Cremophor EL: 5% ethanol: 45% saline).
24 hours after the CCl4-induced toxic liver injury was initiated, rats were sacrificed under ether anesthesia. Blood was collected from the abdominal aorta for biochemical estimations. The liver was immediately removed and weighed. A large portion of the liver was snap-frozen in the liquid nitrogen and the remaining tissue was fixed in 10% buffer formalin, processed and embedded in paraffin for histological examination after hematoxylin and eosin (H&E) staining. Steatohepatitis was evaluated by level of alanine aminotransferase (ALT), aspartate aminotransferase (AST), triglycerides, total cholesterol and superoxide dismutase (SOD) using commercial kits (Nanjing Jiancheng Bioengineering Institute, Nanjing, China) according to manufacturer's instructions and histological assessment and scoring according to standardized criteria by a pathologist blind to the study.

fraction existing as conjugates in rat plasma [1] | Cmax of free silybin [1] | mean Cmax of total silybin (parent plus sulfate and glucuronide conjugates) [1] | SMILES | serum TG and TC levels ([2]; 100 mg/kg of silybin, p<0.01) | CCl4-induced macroscopic and histopathological liver changes (H&E) ([2]; 7 days oral pre-treatment, 24 hours after CCl4) | CCl4-induced increase of liver weight and liver to body weight ratio ([2]; 7 days oral pre-treatment, 24 hours after CCl4, p<0.05) | CCl4-induced increase of serum activity of ALT and AST ([2]; silybin 100 mg/kg for seven consecutive days)
about 97% | 26 ± 13 ng/mL | 1109 ± 158 ng/mL | COc1cc([C@H]2Oc3cc([C@H]4Oc5cc(O)cc(O)c5C(=O)[C@@H]4O)ccc3O[C@@H]2CO)ccc1O [silybin A] |  |  |  | 
~99% | 16 ± 5 ng/mL | 2478 ± 284 ng/mL | COc1cc([C@@H]2Oc3cc([C@H]4Oc5cc(O)cc(O)c5C(=O)[C@@H]4O)ccc3O[C@H]2CO)ccc1O [silybin B] |  |  |  | 
 |  |  | COc1cc(C2Oc3cc([C@H]4Oc5cc(O)cc(O)c5C(=O)[C@@H]4O)ccc3OC2CO)ccc1O (stereo partly shown) [silybin] | attenuated increases | less prominent | negated | significantly prevented

Reference: US10265298B2, “Method of increasing the bioavailability of silybin” (Macau University of Science and Technology, priority 2017, dated 2019)
